According to patent US20030031715A1, “Pharmaceutical applications of hydrotropic agents, polymers thereof, and hydrogels thereof” (priority 2000, published 2003):
≈ marks a conversion by molar mass, not a printed value. Read-outs that look alike come from different tables or passages of the source.

Legend:
[1] = physchem; conditions: water
[2] = Paclitaxel aqueous solubility in the presence of hydrotropic agents, polymers and hydrogels (HPLC); conditions: for hydrotropic effect for paclitaxel, in words: agent concentration as printed in parentheses in the text
Experimental: The mobile phase consists of acetonitrile-water (45:55 v/v) with a flow rate of 1.0 ml/min.
To the filtered solution is added ethylene glycol dimethacrylate, a crosslinker at a concentration of 6 mol % to the monomer.

[3] = at 37° C.; cited from earlier work
[4] = log (CO/CW), octanol and water; cited from earlier work

PTX Solubility [2] [µg/mL] | Molecule | Water Solubility (μM) [3] [µM] | Water Solubility (μg/ml) [3] [µg/mL] | Partition Coefficient [4] | also measured
0 | NC(=O)c1cccc(C(N)=O)n1 [2,6-pyridinedicarboxamide] |  |  |  | solubility [1]: 2500 µM (≈ 413 µg/mL)
 | Nc1ccc(C(=O)O)c(O)c1 [4-aminosalicylic acid] |  |  |  | solubility [1]: 5000 µM (≈ 766 µg/mL)
 | CN(C)CCCN1c2ccccc2Sc2ccc(Cl)cc21 [Chlorpromazine] | 94.1 | 30.0 | 3.17 | 
 | C(=C\c1ccccc1)/CN1CCN(C(c2ccccc2)c2ccccc2)CC1 [Cinnarizine] | <1.0 | <0.4 |  | 
 | C[C@@H]1C[C@H]2[C@@H]3CCC4=CC(=O)C=C[C@]4(C)[C@@]3(F)[C@@H](O)C[C@]2(C)[C@@]1(O)C(=O)CO [Dexamethasone] | 25.5 | 10.0 | 1.95 | 
 | O=C(O)Cc1ccccc1Nc1c(Cl)cccc1Cl [Diclofenac] | 10.1 | 3.0 | 1.12 | 
 | CC/C(=C(/CC)c1ccc(O)cc1)c1ccc(O)cc1 [Diethylstilbestrol] | 7.5 | 2.0 | 4.50 | 
 | C[C@H]1O[C@@H](O[C@H]2[C@@H](O)C[C@H](O[C@H]3[C@@H](O)C[C@H](O[C@H]4CC[C@@]5(C)[C@H](CC[C@@H]6[C@@H]5C[C@@H](O)[C@]5(C)[C@@H](C7=CC(=O)OC7)CC[C@]65O)C4)O[C@@H]3C)O[C@@H]2C)C[C@H](O)[C@@H]1O [Digoxin] | 38.4 | 30.0 | 1.26 | 
 | C[C@]12CC[C@@H]3c4ccc(O)cc4CC[C@H]3[C@@H]1CCC2=O [Estrone] |  |  | 3.69 | 
 | Fc1ccc(C(c2ccc(F)cc2)N2CCN(C/C=C/c3ccccc3)CC2)cc1 [Flunarizine] | 1.0 | 0.4 | 4.70 | 
 | C[C@]12CCC(=O)C=C1CC[C@@H]1[C@@H]2[C@@H](O)C[C@@]2(C)[C@H]1CC[C@]2(O)C(=O)CO [Hydrocortisone] |  |  | 1.52 | 
 | COc1ccc2c(c1)c(CC(=O)O)c(C)n2C(=O)c1ccc(Cl)cc1 [Indomethacin] | 55.9 | 20.0 | 4.27 | 
 | CCC(C)n1ncn(-c2ccc(N3CCN(c4ccc(OCC5COC(Cn6cncn6)(c6ccc(Cl)cc6Cl)O5)cc4)CC3)cc2)c1=O (stereo not drawn) [Itraconazole] | 2.8 | 2.0 | 5.66 | 
 | COC(=O)Nc1nc2ccc(C(=O)c3ccccc3)cc2[nH]1 [Mebendazole] |  |  | 2.83 | 
 | CCN(CC)C(=O)c1cccnc1 [N,N-diethylnicotinamide] |  |  |  | hydrotropic property relative to N,N-dimethylnicotinamide [2]: > 20 times
 | C=CC(=O)NC(C)C [N-isopropylacrylamide] |  |  |  | hydrotropic effect for paclitaxel, in words [2]: very small hydrotropic effects
 | CNC(C)=O [N-methylacetamide] |  |  |  | hydrotropic effect for paclitaxel, in words [2]: very small hydrotropic effects; PTX Solubility ([2]; hydrotropic agent […]): 12 µg/mL
 | COC(=O)C1=C(C)NC(C)=C(C(=O)OCCN(C)Cc2ccccc2)C1c1cccc([N+](=O)[O-])c1 (stereo not drawn) [Nicardipine] | 7.1 | 3.4 | 3.62 | 
 | COC(=O)C1=C(C)NC(C)=C(C(=O)OC)C1c1ccccc1[N+](=O)[O-] [Nifedifine] | 28.9 | 10.0 | 2.20 | 
 | C#C[C@]1(O)CC[C@H]2[C@@H]3CCC4=CC(=O)CC[C@@H]4[C@H]3CC[C@@]21C [Norethindrone] |  |  | 3.15 | 
 | CCOc1ccc(NC(C)=O)cc1 [Phenacetin] |  |  | 1.55 | 
 | O=C1NC(=O)C(c2ccccc2)(c2ccccc2)N1 [Phenytoin] | 79.3 | 20.0 | 2.47 | 
 | O=c1[nH]c2ccccc2n1C1CCN(CCCC(c2ccc(F)cc2)c2ccc(F)cc2)CC1 [Pimozide] | 2.2 | 1.0 | 4.50 | 

PTX Solubility [2] [µg/mL] | Molecule | Water Solubility (μM) [3] [µM] | Water Solubility (μg/ml) [3] [µg/mL] | Partition Coefficient [4] | also measured
 | CO[C@H]1C[C@@H]2CC[C@@H](C)[C@@](O)(O2)C(=O)C(=O)N2CCCC[C@H]2C(=O)O[C@H]([C@H](C)C[C@@H]2CC[C@@H](O)[C@H](OC)C2)CC(=O)[C@H](C)/C=C(\C)[C@@H](O)[C@@H](OC)C(=O)[C@H](C)C[C@H](C)/C=C/C=C/C=C/1C [Rapamycin] | 3.3 | 3.0 |  | 
 | COC(=O)[C@H]1[C@H]2C[C@@H]3c4[nH]c5cc(OC)ccc5c4CCN3C[C@H]2C[C@@H](OC(=O)c2cc(OC)c(OC)c(OC)c2)[C@@H]1OC [Reserpine] | 1.6 | 1.0 | 3.73 | 
 | CC(=O)S[C@@H]1CC2=CC(=O)CC[C@]2(C)[C@H]2CC[C@@]3(C)[C@@H](CC[C@@]34CCC(=O)O4)[C@H]12 [Spironolactone] | 72.0 | 30.0 | 2.78 | 
 | CC(C)(C)c1ccc(C(O)CCCN2CCC(C(O)(c3ccccc3)c3ccccc3)CC2)cc1 (stereo not drawn) [Terfenadine] | 152.8 | 72.1 | 4.05 | 
 | O=C1CCC(N2C(=O)c3ccccc3C2=O)C(=O)N1 (stereo not drawn) [Thalidomide] | 77.5 | 20.0 | 0.64 | 
 | CCCCNC(=O)NS(=O)(=O)c1ccc(C)cc1 [Tolbutamide] | 202.6 | 54.8 |  | 
 | CN1CCN(CCCN2c3ccccc3Sc3ccc(C(F)(F)F)cc32)CC1 [Trifluoperazine] |  |  | 4.15 | 
 | Nc1ncnc2c1ncn2[C@@H]1O[C@H](CO)[C@@H](O)[C@H]1O [adenosine] |  |  |  | solubility [1]: 5000 µM (≈ 1340 µg/mL)
 | CC(C)N(C(=O)c1cccnc1)C(C)C [diisopropylnicotinamide, N,N-diisopropylnicotinamide] |  |  |  | solubility [1]: 50000 µM (≈ 10300 µg/mL)
 | CC(=O)OCC(COC(C)=O)OC(C)=O [glyceryl triacetate] |  |  |  | solubility [1]: 200000 µM
1 | NC(N)=O [urea] |  |  |  | 
66 | Pluronic F127 |  |  |  | 
118 | Pluronic P85 |  |  |  | 
42 | Poly(2-methacryloyloxyethyl phosphorylcholine-co-N-isopropylacrylamide) |  |  |  | 
149 | Poly(6-allyloxy-N,N-diethylnicotinamide) |  |  |  | 
253 | Poly(N-allylnicotinamide) |  |  |  | 
28 | Poly(Sodium 4-acrylamidosalicylate) |  |  |  | 
0 | Poly(Sodium 5-acrylamidosalicylate) |  |  |  | 
3 | Poly(sodium 6-allyloxynicotinic acid) |  |  |  | 
3 | Polyvinylpyrrolidone K-25 |  |  |  | 
1 | Polyvinylpyrrolidone K-30 |  |  |  | 
2 | Polyvinylpyrrolidone K-90 |  |  |  | 
0 | Polyvinylpyrrolidone K- 17 |  |  |  | 

Molecule | PTX Solubility [2] [µg/mL] | Water Solubility (μM) [3] [µM] | Water Solubility (μg/ml) [3] [µg/mL] | Partition Coefficient [4] | also measured
C=C(C)C(=O)OCCOP(=O)([O-])OCC[N+](C)(C)C [2-methacryloyloxyethyl phosphorylcholine] | 3199 |  |  |  | 
